Measurements published in US4515766A, “Labeled phosphonic acid compositions for investigations of in vivo deposits of calcium” (priority 1982, dated 1985).

Columns and labels:
[1] = Toxic effects in rats; format: in vivo; settings: 0.32 mg/300 gm
Excerpt: (§1) Relative to a 70 kg person, this represents a safety factor of 74.7 and 112 respectively.

[2] = Toxic effects in mice; format: in vivo; settings: 0.032 mg/20 gm
Excerpt: as §1

O=P(O)(O)C(O)(c1ccccc1)P(=O)(O)O [.PHI.PA]
toxic effects observed [1]: No toxic effects | safety factor ([1]; rat, in vivo, read-out: safety factor relative to a 70 kg person): 74.7 | toxic effects observed [2]: No toxic effects | safety factor ([2]; mouse, in vivo, read-out: safety factor relative to a 70 kg person): 112
